Where two headings read alike, the source gives them in different places.
Tests used:
PAF = settings: PAF-antagonistic activity; Kornecki et al.; read-out: IC50 (concentration for a 50% inhibition of aggregation); cited from earlier work
benzodiazepine receptor = benzodiazepine receptor bonding test using [^3 H] flunitrazepam as radioligand (FNB); type: binding
[1] = system: PAF-induced aggregation of human thrombocytes; experiment: PAF-induced aggregation of human thrombocytes in vitro (inhibition of blood platelet aggregation); type: cell-based; settings: read-out: IC50 value PAF
Method: The PAF-antagonistic activity of some compounds of formulae Ia and Ib was tested in vitro on the inhibition of blood platelet aggregation.
1. Tests in vitro: inhibition of blood platelet aggregation
The PAF-induced aggregation of human thrombocytes in vitro was used to determine the PAF antagonistic activity of substances. In order to obtain thrombocyte-rich plasma (TRP) blood is taken from an uncongested vein using a plastic syringe which contains 3.8% sodium citrate solution. The ratio of sodium citrate solution to blood is 1:9. After careful mixing the citrated blood is centrifuged for 20 minutes at 150×g (1200 rpm). The thrombocyte aggregation is measured using the method developed by Born and Cross (G. V. R. Born and M. J. Cross, J. Physiol. 168, 178 (1963)), with PAF being added to the TRP with constant stirring to initiate aggregation.
The test substance is added in a volume of 10 μl 2-3 minutes before aggregation is initiated. The solvent used is either distilled water, ethanol and/or dimethyl sulphoxide. Control mixtures are given corresponding volumes of these solvents. After the initial absorption has been recorded (2-3 minutes) aggregation is induced with PAF (5×10^-8 M).
The peak of the first aggregation wave is used in order to assess the effects of the substance. The PAF-induced maximum absorption rate (=maximum aggregation×100%) is tested at the same time in a parallel mixture (=control mixture in one of the channels of the 2-channel aggregometer) to each test mixture (second channel) and used as a 100% value. The aggregation value achieved under the influence of the test substance is […].
Each test substance is tested at concentrations of from 10^-3 to 10^-8 M with a random sampling scope of n=4 to determine any inhibitory activity on the PAF-induced thrombocyte aggregation. A concentration-activity curve is then drawn up from 3 concentrations and the IC50 is determined (concentration for a 50% inhibition of aggregation). With some compounds, only approximate tests for guidance are carried out.

[2] = system: PAF-induced aggregation of human thrombocytes; settings: PAF-antagonistic activity known from European Patent Application No. 176 927; read-out: IC50 (the concentration at which a 50% inhibition of aggregation is measured); cited from earlier work
[3] = [^3 H] flunitrazepam, racemate tested unless otherwise noted, read-out: IC50 value FNB (flunitrazepam bonding test)
[4] = [^3 H] flunitrazepam as radioligand, read-out: value in the benzodiazepine receptor bonding test
[5] = inhibition of PAF-induced (5×10^-8 M) human thrombocyte aggregation, racemate tested unless otherwise noted

Cc1nnc2n1-c1ccc(Cl)cc1C(c1ccccc1)=NC2 [Alprazolam, reference compound]
IC50 (PAF): 14 µM | IC50 (benzodiazepine receptor; [3]): 5.5 nM | IC50 ([1]; Homo sapiens): 14000 nM

Cc1nnc2n1-c1sc3c(c1C(c1ccccc1Cl)=NC2)CCCC3 [Compound (A), 6-(2-chlorophenyl)-11-methyl-2,3,4,5-tetrahydro-8H-[1]benzothieno[3,2-f][1,2,4]triazolo[4,3-a][1,4]diazepine, reference compound]
IC50 [2]: 2.5 µM | IC50 (benzodiazepine receptor; [4]): 21 nM | IC50 (benzodiazepine receptor; [3]): 21 nM | IC50 ([1]; Homo sapiens): < 2500 nM

Cc1nnc2n1-c1sc3c(c1C(c1ccccc1Cl)=NC2)CCNC3 [Compound (B), 6-(2-chlorophenyl)-11-methyl-2,3,4,5-tetrahydro-8-H-pyrido[4',3':4,5]thieno-[3,2-f][1,2,4]triazolo[4,3-a][1,4]diazepine, reference compound]
IC50 [2]: 10 µM | IC50 (benzodiazepine receptor; [4]): 35 nM | IC50 (benzodiazepine receptor; [3]): 35 nM | IC50 ([1]; Homo sapiens): < 7000 nM

Cc1nnc2n1-c1sc3c(c1C(c1ccccc1Cl)=NC2)CC(C(=O)N1CCOCC1)CC3 (stereo not shown) [Example 1, 4-(Morpholin-4-yl-carbonyl)-6-(2-chlorophenyl)-11-methyl-2,3,4,5-tetrahydro-8H-[1]benzothieno[3,2-f][1,2,4]triazolo[4,3-a][1,4]diazepine]
IC50 (benzodiazepine receptor; [3]): > 5000 nM | IC50 ([1]; Homo sapiens): 500 nM

Cc1nnc2n1-c1sc3c(c1C(c1ccccc1Cl)=NC2)CCC(C(=O)N1CCOCC1)C3 (stereo not shown) [Example 2, 3-(Morpholin-4-yl-carbonyl)-6-(2-chlorophenyl)-11-methyl-2,3,4,5-tetrahydro-8H-[1]benzothieno[3,2-f][1,2,4]triazolo[4,3-a][1,4]diazepine]
IC50 (benzodiazepine receptor; [3]): > 5000 nM | IC50 ([1]; Homo sapiens): 2500 nM

Cc1nnc2n1-c1sc3c(c1C(c1ccccc1Cl)=NC2)CC(C(=O)N1CCOCC1)C3 (stereo not shown) [Example 7, 3-(Morpholin-4-yl-carbonyl)-5-(2-chlorophenyl)-10-methyl-3,4-dihydro-2H,7H-cyclopenta[4,5]thieno[3,2-f][1,2,4]triazolo[4,3-a][1,4]diazepine]
IC50 (benzodiazepine receptor; [3]): 3600 nM | IC50 ([1]; Homo sapiens): 300 nM

Cc1cnc2n1-c1sc3c(c1C(c1ccccc1Cl)=NC2)CC(C(=O)N1CCOCC1)CC3 (stereo not shown) [Example 10, 4-(Morpholin-4-yl-carbonyl)-6-(2-chlorophenyl)-11-methyl-2,3,4,5-tetrahydro-8H-[1]benzothieno[3,2-f]imidazo[1,2-a][1,4]diazepine]
IC50 [1, 5]: 300 nM

CCN(CC)C(=O)C1CCc2sc3c(c2C1)C(c1ccccc1Cl)=NCc1ncc(C)n1-3 (stereo not shown) [Example 11]
IC50 (benzodiazepine receptor; [3]): 5000 nM | IC50 ([1]; Homo sapiens): 500 nM

Cc1nnc2n1-c1sc3c(c1C(c1ccccc1Cl)=NC2)CC(CO)CC3 (stereo not shown) [Example 17, 4-(Hydroxymethyl)-6-(2-chlorophenyl)-11-methyl-2,3,4,5-tetrahydro-8H-[1]benzothieno[3,2-f][1,2]triazolo[4,3-a][1,4]diazepine]
IC50 (benzodiazepine receptor; [3]): 1070 nM | IC50 ([1]; Homo sapiens): 1800 nM

OCC1Cc2sc3c(c2C1)C(c1ccccc1Cl)=NCc1nncn1-3 (stereo not shown) [Example 18, 3-(Hydroxymethyl)-5-(2-chlorophenyl)-3,4-dihydro-2H,7H-cyclopenta[4,5]thieno[3,2-f][1,2,4]triazolo[4,3-a][1,4]diazepine]
IC50 [1, 5]: 1300 nM

CC(=O)OCC1Cc2sc3c(c2C1)C(c1ccccc1Cl)=NCc1nnc(C)n1-3 (stereo not shown) [Example 19, 3-Acetoxymethyl-5-(2-chlorophenyl)-10-methyl-3,4-dihydro-2H,7H-cyclopenta[4,5]thieno[3,2-f][1,2,4]triazolo[4,3-a][1,4]diazepine]
IC50 [1, 5]: 600 nM

Cc1nnc2n1-c1sc3c(c1C(c1ccccc1Cl)=NC2)CC(CN1CCOCC1)CC3 (stereo not shown) [Example 21, 4-(N-Morpholinomethyl)-6-(2-chlorophenyl)-11-methyl-2,3,4,5-tetrahydro-8H-[1]benzothieno[3,2-f][1,2,4]triazolo[4,3-a][1,4]-diazepine]
IC50 (benzodiazepine receptor; [3]): > 5000 nM | IC50 ([1]; Homo sapiens): 300 nM

CC(=S)N1CCc2c(sc3c2C(c2ccccc2Cl)=NCc2nnc(C)n2-3)C1 [Example 25, 3-Thioacetyl-6-(2-chlorophenyl)-11-methyl-2,3,4,5-tetrahydro-8H-pyrido[4',3':4,5]thieno[3,2-f][1,2,4]triazolo[4,3-a][1,4]diazepine]
IC50 (benzodiazepine receptor; [3]): 2300 nM | IC50 ([1]; Homo sapiens): 1000 nM

Cc1nnc2n1-c1sc3c(c1C(c1ccccc1Cl)=NC2)CC(C1=NCCN1)CC3 (stereo not shown) [Example 33, 4-[2-Imidazolin-2-yl]-6-(2-chlorophenyl)-2,3,4,5-tetrahydro-8H-[1]benzothieno[3,2-f][1,2,4]triazolo[4,3-a][1,4]diazepine]
IC50 [1, 5]: 2300 nM

CCN(CC)C(=O)C1CCc2c(sc3c2C(c2ccccc2Cl)=NCc2nnc(C)n2-3)C1 (stereo not shown) [Example 35]
IC50 (benzodiazepine receptor; [3]): > 5000 nM | IC50 ([1]; Homo sapiens): 3300 nM

CCN(CC)C(=O)C1CCc2sc3c(c2C1)C(c1ccccc1Cl)=NCc1nnc(C)n1-3 (stereo not shown) [Example 36]
IC50 (benzodiazepine receptor; [3]): > 5000 nM | IC50 ([1]; Homo sapiens): 400 nM

Cc1nnc2n1-c1sc3c(c1C(c1ccccc1Cl)=NC2)CC(C(=O)N1CCN(C)CC1)CC3 (stereo not shown) [Example 37]
IC50 (benzodiazepine receptor; [3]): > 5000 nM | IC50 ([1]; Homo sapiens): 1800 nM

Cc1nnc2n1-c1sc3c(c1C(c1ccccc1Cl)=NC2)CC(C(=O)N(C)CCO)CC3 (stereo not shown) [Example 38]
IC50 [1, 5]: 2700 nM

Cc1nnc2n1-c1sc3c(c1C(c1ccccc1Cl)=NC2)C(C(=O)N(C)C)CC3 (stereo not shown) [Example 46]
IC50 (benzodiazepine receptor; [3]): 1460 nM | IC50 ([1]; Homo sapiens): 4800 nM

Cc1nnc2n1-c1sc3c(c1C(c1ccccc1Cl)=NC2)CC(C(=O)NCC(=O)N1CCOCC1)C3 (stereo not shown) [Example 58]
IC50 (benzodiazepine receptor; [3]): 380 nM | IC50 ([1]; Homo sapiens): 400 nM

CC(=O)OCC1CCc2sc3c(c2C1)C(c1ccccc1Cl)=NCc1nnc(C)n1-3 (stereo not shown) [Example 62]
IC50 (benzodiazepine receptor; [3]): 4600 nM | IC50 ([1]; Homo sapiens): 400 nM

Cc1cnc2n1-c1sc3c(c1C(c1ccccc1Cl)=NC2)CC(Cn1cncn1)CC3 (stereo not shown) [Example 63]
IC50 (benzodiazepine receptor; [3]): > 5000 nM | IC50 ([1]; Homo sapiens): 400 nM

Cc1cnc2n1-c1sc3c(c1C(c1ccccc1Cl)=NC2)CC(CO)CC3 (stereo not shown) [Example 64]
IC50 [1, 5]: 800 nM

Cc1nnc2n1-c1sc3c(c1C(c1ccccc1Cl)=NC2)CC(CN1CCOCC1)C3 (stereo not shown) [Example 66]
IC50 (benzodiazepine receptor; [3]): 920 nM | IC50 ([1]; Homo sapiens): < 200 nM

CC(=O)OCC1Cc2sc3c(c2C1)C(c1ccccc1Cl)=NCc1nncn1-3 (stereo not shown) [Example 68]
IC50 [1, 5]: 400 nM

Cc1nnc2n1-c1sc3c(c1C(c1ccccc1Cl)=NC2)CC(C1=NCCO1)CC3 (stereo not shown) [Example 79]
IC50 (benzodiazepine receptor; [3]): 4800 nM | IC50 ([1]; Homo sapiens): 2200 nM

Cc1nnc2n1-c1sc3c(c1C(c1ccccc1Cl)=NC2)CC(C1=NC(C)(C)CN1)CC3 (stereo not shown) [Example 83]
IC50 [1, 5]: 900 nM

CC(=O)NCC(=O)N1CCc2c(sc3c2C(c2ccccc2Cl)=NCc2nnc(C)n2-3)C1 [Example 86, 3-Acetylaminomethylcarbonyl-6-(2-chlorophenyl)-11-methyl-2,3,4,5-tetrahydro-8H-pyrido[4',3':4,5]thieno[3,2-f][1,2,4]triazolo[4,3-a][1,4]diazepine]
IC50 (benzodiazepine receptor; [3]): > 5000 nM | IC50 ([1]; Homo sapiens): 1000 nM

Cc1cnc2n1-c1sc3c(c1C(c1ccccc1Cl)=NC2)CC(CN1CCOCC1)C3 (stereo not shown) [Example 113]
IC50 (benzodiazepine receptor; [3]): 3000 nM | IC50 ([1]; Homo sapiens): < 200 nM

Cc1nnc2n1-c1ccc(Cl)cc1C(c1ccccc1Cl)=NC2 [Triazolam, reference compound]
IC50 (PAF): 9 µM | IC50 (benzodiazepine receptor; [3]): 1.4 nM | IC50 ([1]; Homo sapiens): 9000 nM

Source: patent US5532233A, “Hetrazepine compounds which have useful pharmaceutical utility” (priority 1986, dated 1996)
